From ChEMBL document CHEMBL1134037, “Novel inhibitors of Leishmanial dihydrofolate reductase” (Bioorg Med Chem Lett, 2001) come the findings set out here.

For one assay, the system named is Trypanosoma cruzi. Briefly: In vitro inhibition of compound against Trypanosoma cruzi was determined. Format: functional, organism-based.
Another assay concerns Leishmania donovani. As to the kind of experiment: In vitro inhibition of compound against Leishmania donovani was determined. Format: functional, organism-based.
Assay [1] in a line: (§1) Cytotoxicity of compound was determined against rat L-6 cells. Format: functional, cell-based. To be noted: L6.
For assay [2], the target named is T1, Dihydrofolate reductase (Homo sapiens) (UniProt P00374).
T1 sequence (whole entry): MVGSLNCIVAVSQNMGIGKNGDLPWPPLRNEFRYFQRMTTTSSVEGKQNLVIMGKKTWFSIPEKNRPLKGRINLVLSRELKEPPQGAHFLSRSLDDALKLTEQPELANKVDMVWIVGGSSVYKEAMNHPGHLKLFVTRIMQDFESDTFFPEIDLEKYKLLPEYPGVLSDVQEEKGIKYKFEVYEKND
As to the kind of experiment: Percent inhibition of compound against recombinant human dihydrofolate reductase at a concentration of 100 uM.

The target in assay [3] is Bifunctional dihydrofolate reductase-thymidylate synthase (Leishmania major) (UniProt P07382). As to the kind of experiment: Percent inhibition of compound against recombinant Leishmanial major dihydrofolate reductase at a concentration of 100 uM.
For a further assay, the system named is Trypanosoma brucei. As to the kind of experiment: In vitro inhibition of compound against Trypanosoma brucei was determined. Format: functional, organism-based.
Assay [4] concerns the target T1, Dihydrofolate reductase (Homo sapiens). As to the kind of experiment: Percent inhibition of compound against recombinant human dihydrofolate reductase at a concentration of 50 uM.
The nature of assay [5]: as §1. The format is functional.
Assay [6] addresses T1, Dihydrofolate reductase (Homo sapiens). As to the kind of experiment: Percent inhibition of compound against recombinant human dihydrofolate reductase at a concentration of 15 uM.

Sequence of Bifunctional dihydrofolate reductase-thymidylate synthase (Leishmania major) (P07382 whole entry, looked up): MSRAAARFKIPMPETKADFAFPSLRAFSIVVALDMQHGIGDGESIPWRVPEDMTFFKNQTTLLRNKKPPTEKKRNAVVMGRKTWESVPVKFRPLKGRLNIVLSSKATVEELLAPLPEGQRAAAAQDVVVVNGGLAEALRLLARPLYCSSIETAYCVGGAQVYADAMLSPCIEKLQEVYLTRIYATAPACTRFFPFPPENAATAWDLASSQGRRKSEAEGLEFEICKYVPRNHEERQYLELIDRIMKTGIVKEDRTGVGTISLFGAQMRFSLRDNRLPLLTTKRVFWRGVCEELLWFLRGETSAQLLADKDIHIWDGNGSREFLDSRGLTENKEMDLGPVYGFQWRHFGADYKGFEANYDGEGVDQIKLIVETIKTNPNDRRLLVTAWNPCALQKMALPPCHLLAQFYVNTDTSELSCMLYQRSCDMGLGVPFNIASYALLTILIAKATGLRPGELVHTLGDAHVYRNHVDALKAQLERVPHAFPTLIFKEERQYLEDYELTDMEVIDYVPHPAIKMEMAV

In general, IC50 refers to the midpoint of a concentration-inhibition curve. Read a high IC50 as weaker potency in that assay. One may read the inhibition as the drop in the measured response relative to a control, in per cent. Turning to `COC(=O)N[C@H](C(=O)OC)[C@H](O)[C@@H](C)c1c(C)nc2n(C)c3ncn(Cc4ccccc4)c3c(=O)n12`, the IC50 is 53 µM in the assay with Trypanosoma cruzi, below 21 µM in the assay with Leishmania donovani, 181 µM in assay [1] and 108 µM with Trypanosoma brucei. Moreover, the figures for the inhibition in assay [2] and in [3] were 16% and 24%, respectively.

On to `CCn1ncc2c1n/c(=N\c1ccccc1)n1ccc3ccccc3c21`, for which the IC50 was 60 µM with Trypanosoma cruzi, 54 µM in the assay with Leishmania donovani, above 265 µM in assay [1] and 35 µM in the assay on Trypanosoma brucei. Also, the inhibition stood at 10% in assay [2] and 28% in assay [3].

As for `O=c1[nH]c(=O)n([C@H]2C[C@H](O)[C@@H](CO)O2)c2nc(-c3ccccc3)c(-c3ccccc3)nc12`, the IC50 was 35 µM in the assay with Trypanosoma cruzi, 69 µM in the assay on Leishmania donovani, 208 µM in [1] and 11 µM with Trypanosoma brucei. The inhibition in assay [3] came out at 50%; in assay [4], 37%.

As to `COC(=O)/C(C#N)=C/c1ccc(/C=C/c2ccccn2)cc1`, the figures for the IC50 in the assay with Trypanosoma cruzi, in the assay with Leishmania donovani and in the assay on Trypanosoma brucei were 30 µM, 56 µM and 16 µM, respectively. The MIC in [5] was above 310 µM. Further, the inhibition in assay [6] amounted to 21%; in assay [3] it was 32%.

Turning to `CCOC(=O)/C(C#N)=C/c1ccc(/C=C/c2ccccn2)cc1`, the IC50 in the assay on Trypanosoma cruzi was 8.6 µM; with Leishmania donovani it was 47 µM; in assay [1] it was above 296 µM; in the assay on Trypanosoma brucei, 15 µM. The figures for the inhibition in assay [2] and in assay [3] were 43% and 50%, respectively.
